The values that follow come from US8754242B2, “Herbicides” (Syngenta Crop Protection LLC, priority 2007, dated 2014).

Assay type in all cases: in vivo
In assay [1] the test system is Alopecurus myosuroides (ALOMY). Nature of the assay: Test Example 1 post-emergence herbicidal activity. The following applies: 360 h, rate 125 g/ha, evaluated 15 days later, read-out: Post-emergence activity ALOMY (100=total damage to plant; 0=no damage to plant). A digest of the protocol: (§1)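 Pots sown in standard soil were sprayed 1 day (pre-emergence) or 10 days (post-emergence) after sowing with an aqueous spray from an acetone/Emulsogen EL/N-methylpyrrolidone-based formulation. Visual damage was scored 20 days (pre) or 15 days (post) later in the greenhouse, 0 = none to 100 = total.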

Assay [2] has as its system Echinochloa crus-galli (ECHCG). Kind of assay: Test Example 1 post-emergence herbicidal activity. The note with it: 360 h, rate 125 g/ha, evaluated 15 days later, read-out: Post-emergence activity ECHCG (100=total damage to plant; 0=no damage to plant). An outline of the steps:
as §1

Assay [3] deals with Lolium perenne (LOLPE). Kind of assay: Test Example 1 post-emergence herbicidal activity. The following applies: 360 h, rate 125 g/ha, evaluated 15 days later, read-out: Post-emergence activity LOLPE (100=total damage to plant; 0=no damage to plant). An outline of the steps:
as §1

Assay [4] has as its system Setaria faberi (SETFA). Nature of the assay: Test Example 1 post-emergence herbicidal activity. The note with it: 360 h, rate 125 g/ha, evaluated 15 days later, read-out: Post-emergence activity SETFA (100=total damage to plant; 0=no damage to plant). An outline of the steps:
as §1

The test system of assay [5] is Avena fatua (AVEFA). Kind of assay: Test Example 1 post-emergence herbicidal activity. The note with it: 360 h, rate 125 g/ha, evaluated 15 days later, read-out: Post-emergence activity AVEFA (100=total damage to plant; 0=no damage to plant). An outline of the steps: as §1
Assay [6] concerns Digitaria sanguinalis (DIGSA). Kind of assay: Test Example 1 post-emergence herbicidal activity. The note with it: 360 h, rate 125 g/ha, evaluated 15 days later, read-out: Post-emergence activity DIGSA (100=total damage to plant; 0=no damage to plant). An outline of the steps: as §1
For assay [7], the system named is Alopecurus myosuroides (ALOMY). Nature of the assay: Test Example 1 pre-emergence herbicidal activity. The note with it: Alopecurus myosuroides, 480 h, rate 250 g/ha, evaluated 20 days later, read-out: Pre-emergence activity ALOMY (100=total damage to plant; 0=no damage to plant). A digest of the protocol: as §1
For assay [8], the system named is Echinochloa crus-galli (ECHCG). Nature of the assay: Test Example 1 pre-emergence herbicidal activity. The note with it: Echinochloa crus-galli, 480 h, rate 250 g/ha, evaluated 20 days later, read-out: Pre-emergence activity ECHCG (100=total damage to plant; 0=no damage to plant). A digest of the protocol: as §1
The test system of assay [9] is Lolium perenne (LOLPE). Nature of the assay: Test Example 1 pre-emergence herbicidal activity. The note with it: Lolium perenne, 480 h, rate 250 g/ha, evaluated 20 days later, read-out: Pre-emergence activity LOLPE (100=total damage to plant; 0=no damage to plant). A digest of the protocol:
as §1

Assay [10] relates to Setaria faberi (SETFA). Kind of assay: Test Example 1 pre-emergence herbicidal activity. The note with it: Setaria faberi, 480 h, rate 250 g/ha, evaluated 20 days later, read-out: Pre-emergence activity SETFA (100=total damage to plant; 0=no damage to plant). An outline of the steps: as §1
In assay [11] the test system is Avena fatua (AVEFA). Nature of the assay: Test Example 1 pre-emergence herbicidal activity. The note with it: Avena fatua, 480 h, rate 250 g/ha, evaluated 20 days later, read-out: Pre-emergence activity AVEFA (100=total damage to plant; 0=no damage to plant). An outline of the steps: as §1
In assay [12] the test system is Digitaria sanguinalis (DIGSA). Kind of assay: Test Example 1 pre-emergence herbicidal activity. The following applies: Digitaria sanguinalis, 480 h, rate 250 g/ha, evaluated 20 days later, read-out: Pre-emergence activity DIGSA (100=total damage to plant; 0=no damage to plant). An outline of the steps: as §1

Consider `CCc1cc(C)cc(CC)c1C1=C(O)[C@H]2[C@@H](C1=O)[C@@H]1CC[C@@]2(C)O1` [Example T8], for which the pest or weed control at 125 g/ha in [1], in assay [2], in assay [3], in assay [4], in assay [5] and in [6] was 100% throughout. Also, the pest or weed control at 250 g/ha turned out to be 100% in [7]; 100% in assay [8]; 100% in [9]; 100% in assay [10]; 90% in assay [11]; 100% in [12].

As for `CCc1cc(C)cc(CC)c1C1=C(O)[C@@H]2[C@@H]3O[C@@H](C[C@H]3c3ccc(C)c(F)c3)[C@@H]2C1=O` [Example T146], the pest or weed control at 125 g/ha was found to be 80% in [1]; 100% in assay [2]; 90% in [3]; 70% in assay [4]; 80% in assay [5]; 70% in assay [6]. For the same compound, the pest or weed control at 250 g/ha in assay [7] worked out at 70%; in assay [8] it was 80%; in assay [9], 90%; in assay [10], 80%; in assay [11] it was 60%; in assay [12], 80%.

On to `CCc1cc(C)cc(CC)c1C1=C(O)[C@@H]2[C@@H]3O[C@@H](C[C@H]3c3ccc(Cl)cc3)[C@@H]2C1=O` [Example T155], for which the pest or weed control at 125 g/ha in assay [1] was 90%; in [2], 100%; in assay [3] it was 60%; in assay [4], 100%; in assay [5], 70%; in assay [6], 100%. Moreover, the pest or weed control at 250 g/ha in [7] stood at 60%; in assay [8], 60%; in assay [9], 80%; in assay [10], 60%; in [11], 50%; in assay [12], 70%.

With `CSC[C@]12C=C[C@H](O1)[C@@H]1C(=O)C(c3c(C)cc(C)cc3C)=C(O)[C@@H]12` (racemic) [Example T41], the pest or weed control at 125 g/ha in [1] was 40%; in assay [2], 80%; in assay [3], 0%; in assay [4] it was 80%; in [5], 0%; in assay [6], 80%. The pest or weed control at 250 g/ha in assay [7] was determined as 50%; in assay [8] it was 70%; in assay [9], 20%; in assay [10], 60%; in [11], 30%; in assay [12], 30%.

Take `Cc1cc(C)c(C2=C(O)[C@@H]3[C@@H]4O[C@@H](C[C@H]4c4nc(C)cnc4C)[C@@H]3C2=O)c(C)c1` [Example T193]: the pest or weed control at 125 g/ha is 60% in assay [1]; 60% in assay [2]; 30% in assay [3]; 30% in assay [4]; 40% in assay [5]; 60% in assay [6]. Further, the pest or weed control at 250 g/ha was determined as 20% in [7]; 20% in [8]; 60% in [9]; 40% in assay [10]; 30% in assay [11]; 20% in [12].

As for `CCc1nc2ccccc2nc1[C@@H]1C[C@@H]2O[C@H]1[C@H]1C(O)=C(c3c(C)cc(C)cc3C)C(=O)[C@H]12` [Example T194], the pest or weed control at 125 g/ha was 30% in assay [1]; 80% in assay [2]; 20% in assay [3]; 0% in assay [4]; 0% in [5]; 70% in assay [6]. For the same compound, the pest or weed control at 250 g/ha was determined as 0% in assay [7]; 50% in assay [8]; 20% in assay [9]; 50% in assay [10]; 20% in assay [11]; 70% in assay [12].

Regarding `Cc1cc(C)c(C2=C(O)[C@H]3[C@@H](C2=O)[C@@H]2C=C[C@@]3(CSC(C)C)O2)c(C)c1` (racemic) [Example T43], the pest or weed control at 125 g/ha came to 10% in assay [1]; 60% in [2]; 0% in assay [3]; 40% in assay [4]; 0% in [5]; 20% in [6]. Further, the pest or weed control at 250 g/ha in assay [7] was determined as 10%; in [8] it was 0%; in assay [9], 0%; in assay [10] it was 50%; in [11], 20%; in assay [12], 20%.

As to `Cc1cc(C)c(C2=C(O)[C@H]3[C@@H](C2=O)[C@@H]2C=C[C@@]3(C(C)O)O2)c(C)c1` (mixture of isomers) [Example T39], the pest or weed control at 125 g/ha in assay [1] was determined as 10%; in assay [2], 70%; in assay [3], 0%; in assay [4], 60%; in assay [5] it was 20%; in [6], 70%. The pest or weed control at 250 g/ha in [7] was found to be 10%; in [8], 30%; in assay [9] it was 30%; in assay [10], 40%; in assay [11], 20%; in assay [12] it was 30%.

As for `C=C[C@@H]1C[C@@H]2O[C@H]1[C@H]1C(O)=C(c3c(C)cc(C)cc3C)C(=O)[C@H]12` (racemic) [Example T99], the pest or weed control at 125 g/ha is 80% in assay [1]; 100% in assay [2]; 10% in assay [3]; 70% in [4]; 30% in assay [5]; 60% in assay [6]. Moreover, the pest or weed control at 250 g/ha amounted to 80% in assay [7]; 100% in [8]; 100% in assay [9]; 80% in assay [10]; 60% in assay [11]; 80% in assay [12].

For the compound `CSc1ccc([C@@H]2C[C@@H]3O[C@H]2[C@H]2C(O)=C(c4c(C)cc(C)cc4C)C(=O)[C@H]23)cc1` [Example T66], the pest or weed control at 125 g/ha in assay [1] was 80%; in [2] it was 80%; in assay [3] it was 50%; in assay [4], 80%; in [5], 80%; in assay [6], 90%. The pest or weed control at 250 g/ha in [7] was found to be 30%; in assay [8], 70%; in assay [9] it was 40%; in assay [10], 100%; in assay [11], 60%; in assay [12] it was 90%.
